The structures appear in SMILES notation.

The subject of one series is OVCAR 3 Cancer cells. Briefly: Nano formulations in animals with implanted tumor: side effects. Particulars: mouse, in vivo. As to the method:
Animals—Immunodeficient, female athymic mice aged 5-6 weeks and weighing between 18 and 20 g were purchased from Taconic Biosciences (Albany, N.Y.). All animal studies were conducted at the animal facility of the Veteran Affairs Medical Center, Albany, N.Y. in accordance with and approved by institutional guidelines for humane animal treatment and according to the current guidelines. Mice were maintained under specific pathogen-free conditions and housed under controlled conditions of temperature (20-24° C.) and humidity (60-70%) and 12 h light/dark cycle with ad libitum access to water and food. Mice were allowed to acclimatize for 5 d prior to the start of study.
Treatment—OVCAR 3 Cancer cells (1×10^6) were implanted subcutaneously in right flank of each animal. In the first set of experiments, control, free Quercetin (3 mg/kg), NPS-quercetin(3 mg/kg), and FA-NPs-quercetin (3 mg/kg) were injected subcutaneously to the mice everyday (for 14 days). The control was PBS, after humane sacrifice of animals at 14 days, tumors were harvested and amount of QC was measured.

For series [1] the following is noted: cited from earlier work.

Regarding `O=c1c(O)c(-c2ccc(O)c(O)c2)oc2cc(O)cc(O)c12` [Quercetin, quercetin], in the series with OVCAR 3 Cancer cells, the “adverse toxic effect on the health of tumor bearing mice” value is “does not have any adverse toxic effect”. Moreover, in series [1], the water solubility result is given as “not water soluble”.
